According to US9168247B2, “Beta carboline derivatives useful in the treatment of proliferative disorders” (FACULTES UNIVERSITAIRES NOTRE DAME DE LA PAIX, priority 2010, dated 2015):
Read-outs that look alike come from different tables or passages of the source.

Tests used:
T98G glioma cells = experiment: MTT test, overall cell growth, T98G; assay type: cell-based, human; conditions: 72 hours of incubation
Procedure: (§1) MTT tests were performed in order to rapidly, i.e., within 5 days, measure the effect of the present compounds on the overall cell growth. The test measured the number of metabolically active living cells that were able to transform the yellow product 3-(4,5-dimethylthiazol-2-yl)-2,5-diphenyl tetrazolium bromide (herein referred as MTT) into the blue product formazan dye by mitochondrial reduction. The amount of formazan obtained at the end of the experiment, measured by means of a spectrophotometer, is directly proportional to the number of living cells. Optical density determination thus enabled a quantitative measurement of the effect of the investigated compounds as compared to the control condition (untreated cells) and/or to other reference compounds.
(§2) Five human cancer cell lines set forth in Table 3 were used in the MTT tests. These cancer cell lines cover two histological cancer types including glioma (Hs683, T98G, U373), and oesophageal (OE21, OE33) cancers. The U373 cell line is apoptosis-resistant but autophagy-sensitive.
(§3) To perform the assay, cells were allowed to grow in 96-well micro-wells with a flat bottom with an amount of 100 μl of cell suspension per well with 5,000 to 8,000 cells/well depending on the cell type used. Each cell line was seeded in its appropriate culture medium.
(§4) The detailed experimental procedure was as follows: after a 24-hour period of incubation at 37° C., the culture medium was replaced by 100 μl of fresh medium in which the tested compound was previously dissolved, at the following molar concentrations: 1×10^−8 M, 5×10^−8 M, 1×10^−7 M, 5×10^−7 M, 1×10^−6 M, 5×10^−6 M, 1×10^−5 M, 5×10^−5 M and 1×10^−4 M. Each experiment was performed in sestuplicate (6 times).
(§5) After 72 hours of incubation at 37° C. with (experimental conditions) or without (control condition) the compound to be tested, the medium was replaced by 100 μl MTT dissolved in RPMI (1640 without phenol red) at a concentration of 0.5 or 1 mg/ml. The micro-wells were subsequently incubated during 3 hours and a half at 37° C. and centrifuged at 1300 rpm during 10 minutes. MTT was removed and formazan crystals formed were dissolved in […]. The micro-wells were shaken for 5 minutes and read on a spectrophotometer at wavelengths of 570 nm (maximal formazan absorbance).
(§6) For each experimental condition, the mean optical density was calculated, allowing the determination of the percentage of remaining living cells in comparison to the control.
(§7) The origin of all the cell lines we used, along with their biological characteristics, and the validation procedures of the MTT colorimetric assay as employed here are fully detailed in Van Quaquebeke et al., 2005, J Med Chem 48:849-856; Ingrassia et al., 2009, J Med Chem 52:1100-1114; Mathieu et al., 2009, J Cell Mol Med, Feb. 20, 2009.

[1] = tested on: human cancer cell lines (U373, T98G, Hs683, OE21, OE33); experiment: MTT test, mean over the cancer cell lines; assay type: cell-based
Procedure: as §1, §2, §3, §4, §5, §6, §7

U373 glioma cells = experiment: MTT test, overall cell growth, U373; assay type: cell-based, human; conditions: 72 hours of incubation
Procedure: as §1, §2, §3, §4, §5, §6, §7

[2] = tested on: OE21 oesophageal cancer cells; experiment: MTT test, overall cell growth, OE21; assay type: cell-based, human
Procedure: as §1, §2, §3, §4, §5, §6, §7

[3] = tested on: OE33 oesophageal cancer cells; experiment: MTT test, overall cell growth, OE33; assay type: cell-based, human
Procedure: as §1, §2, §3, §4, §5, §6, §7

Hs683 glioma cells = experiment: MTT test, overall cell growth, Hs683; assay type: cell-based, human
Procedure: as §1, §2, §3, §4, §5, §6, §7

U373 cells = experiment: Cellular imaging (videomicroscopy) of cultured U373 cells: antiproliferative class and global growth ratio; assay type: cell-based, human; design: key to Anti proliferative class / anti-proliferative class-GGR: class I: actually cytostatic for 3 days (<10% of cell death at the 3rd day); class II: cyctostatic but becomes cytotoxic with <10% cell death on the 2nd day, and >20% of cell death on the 3rd day; class III: cytostatic but rapidly becomes cytotoxic with <10% cell death on the 1st day, >20% of cell death on the 2nd day and >50% of cell death on the 3rd day; class IV: cytotoxic (>50% of cell death on the first day); conditions: for global growth ratio (GGR): GG treated cells/GG control cells, 72 h after drug addition, drug at its IC50 (MTT-test determined); for Anti proliferative class: cellular imaging of cultured U373 cells over three consecutive days
From the text: The effects of the di- and tri-substituted beta-carboline derivatives as described herein can also be determined on cell proliferation, migration and morphology by means of a cellular imaging approach (Debeir et al., Cytometry 60:29-40, 2004; Debeir et al., IEEE Trans Med Imaging 24:697-711, 2005) either in, e.g., the human U373-MG glioma cell line, which is apoptosis-resistant but autophagy-sensitive (Lefranc F et al., Neurosurgery 2008) or in, e.g., the human A549 non-small-cell-lung cancer cell line, which is apoptosis-resistant and autophagy-resistant (Mijatovic T et al., Neoplasia 2006, May; 8(5):402-12).
[…] The experiments are conducted in quadruplicates.
The behaviour of the cells, in terms of morphology, growth and death are thus investigated. The effect on the overall growth is measured by counting the number of cells on the first (0 h) and the last image (72 h) of each film. The global growth ratio (GGR) is then deduced by dividing the number of cells on the last image by the number of cells on the first image. The ratio GGRtreated cells/GGRcontrol cells is further calculated thereby providing a value that describes the effect of compounds of the present invention on the overall cell growth.
The methodology is fully described and validated in Debeir et al., 2008, Exp Cell Res 314:2985-2998 and Mathieu et al., 2009, J Cell Mol Med, Feb. 20, 2009.

[4] = Homo sapiens, mean over the cancer cell lines, MTT test, read-out: IC50 Mean ± SEM
[5] = Homo sapiens, OE21, 72 hours of incubation
[6] = Homo sapiens, OE33, 72 hours of incubation
[7] = Homo sapiens, Hs 683, 72 hours of incubation
[8] = mean over the cancer cell lines, MTT test, read-out: IC50 Mean ± SEM
[9] = Homo sapiens, Glioma cell, MTT assay, submicromolar range, e.g. as low as, read-out: mean anti-proliferative effect on the glioma cell lines

| IC50 (T98G glioma cells; Homo sapiens, T98G) [µM] | IC50 [1, 4] [µM] | IC50 (U373 glioma cells; Homo sapiens, U373 MG) [µM] | IC50 [2, 5] [µM] | IC50 [3, 6] [µM] | IC50 (Hs683 glioma cells; [7]) [µM] | IC50 (T98G glioma cells) [µM] | IC50 [1, 8] [µM] | IC50 (U373 glioma cells) [µM] | IC50 ([2]; 72 hours of incubation) [µM] | IC50 ([3]; 72 hours of incubation) [µM] | IC50 (Hs683 glioma cells; 72 hours of incubation) [µM] | IC50 [1, 9] [µM] | IC50 ([1]; Homo sapiens, Table 4, mean over cell lines, read-out: IC50 μM growth inhibition (MTT test)) [µM] | Structure (SMILES) | global growth ratio (GGR) (U373 cells) | Anti proliferative class (U373 cells) |
| --- | --- | --- | --- | --- | --- | --- | --- | --- | --- | --- | --- | --- | --- | --- | --- | --- |
| 1.8 ± 0.3 | 0.7 ± 0.3 | 0.39 ± 0.01 | 0.42 ± 0.02 | 0.25 ± 0.02 | 0.45 ± 0.02 |  |  |  |  |  |  |  |  | CCCn1c2cc(OCc3ccccc3)ccc2c2cc[n+](Cc3ccccc3F)c(C)c21.[Br-] [CV35, 1-methyl-2-(2-fluorobenzyl)-7-benzyloxy-9-propyl-β-carbolin-2-ium bromide] | 0.4 | I (class I: actually cytostatic for 3 days (<10% of cell death at the 3rd day)) |
| 2 ± 0.6 | 1.6 ± 0.4 | 0.04 ± 0.01 | 1.4 ± 0.2 | 1 ± 0.1 | 3.1 ± 0.3 |  |  |  |  |  |  |  |  | Cc1c2c(cc[n+]1Cc1ccc(F)cc1)c1ccc(OCC3CCCCC3)cc1n2CC1CCCCC1.[Br-] [CV30, 1-methyl-2-(4-fluorobenzyl)-7-cyclohexylmethyloxy-9-cyclohexylmethyl-β-carbolin-2-ium bromide] | 0.8 | I (class I: actually cytostatic for 3 days (<10% of cell death at the 3rd day)) |
|  |  |  |  |  |  | 12 ± 2 | 16 ± 5 | 7.4 ± 0.4 | 33 ± 8 | 8.2 ± 0.4 | 19 ± 2 |  |  | Cc1nccc2c1[nH]c1cc(OCc3cccc4ccccc34)ccc12 [JR147] | 0.2 | IV (class IV: cytotoxic (>50% of cell death on the first day)) |
|  |  |  |  |  |  | 21 ± 1 | 15 ± 3 | 9.1 ± 0.6 | 14 ± 1 | 7.9 ± 0.3 | 21 ± 3 |  |  | Cc1nccc2c1[nH]c1cc(OCCc3ccccc3)ccc12 [JR155] | 0.2 | IV (class IV: cytotoxic (>50% of cell death on the first day)) |
| 1.7 ± 0.5 | 1.1 ± 0.4 | 0.41 ± 0.03 | 0.57 ± 0.08 | 0.3 ± 0.05 | 2.6 ± 0.2 |  |  |  |  |  |  |  |  | CCCn1c2cc(OCc3ccccc3)ccc2c2cc[n+](Cc3ccccc3)c(C)c21.[Br-] [CV34, 1-methyl-2-benzyl-7-benzyloxy-9-propyl-β-carbolin-2-ium bromide] | 0.3 | III |
|  |  |  |  |  |  | 0.97 ± 0.02 | 1.6 ± 0.5 | 0.82 ± 0.08 | 0.4 ± 0.1 | 2.9 ± 0.1 | 2.8 ± 0.4 |  |  | Cc1c2c(cc[n+]1Cc1ccccc1)c1ccc(OCc3cccc(F)c3)cc1n2Cc1cccc(F)c1.[Br-] [CV16, 1-methyl-2-benzyl-7-(3-fluorobenzyl)oxy-9-(3-fluorobenzyl)43-carbolin-2-ium bromide] | 0.4 | I (class I: actually cytostatic for 3 days (<10% of cell death at the 3rd day)) |
| 0.07 ± 0.008 | 0.5 ± 0.2 | 1.42 ± 0.08 | 0.35 ± 0.01 | 0.35 ± 0.02 | 0.25 ± 0.02 |  |  |  |  |  |  | 0.34 to 0.8 |  | Cc1c2c(cc[n+]1Cc1ccccc1F)c1ccc(OCC3CCCCC3)cc1n2CC1CCCCC1.[Br-] [CV26, 1-methyl-2-(2-fluorobenzyl)-7-cyclohexylmethyloxy-9-cyclohexylmethyl-β-carbolin-2-ium bromide] | 0.2 | I (class I: actually cytostatic for 3 days (<10% of cell death at the 3rd day)) |
| 5.7 ± 0.2 | 2.5 ± 0.9 | 0.88 ± 0.06 | 1.9 ± 0.3 | 1 ± 0.1 | 3.1 ± 0.6 |  |  |  |  |  |  |  |  | CCCn1c2cc(OCc3ccccc3)ccc2c2cc[n+](Cc3ccc(F)cc3)c(C)c21.[Br-] [CV36, 1-methyl-2-(4-fluorobenzyl)-7-benzyloxy-9-propyl-β-carbolin-2-ium bromide] | 0.1 | IV (class IV: cytotoxic (>50% of cell death on the first day)) |
| 0.16 ± 0.03 | 0.34 ± 0.05 | 0.37 ± 0.02 | 0.42 ± 0.008 | 0.37 ± 0.01 | 0.38 ± 0.009 |  |  |  |  |  |  | 0.34 to 0.8 | 0.34 | Cc1c2c(cc[n+]1Cc1ccccc1)c1ccc(OCC3CCCCC3)cc1n2CC1CCCCC1.[Br-] [CV24, 1-methyl-2-benzyl-7-cyclohexylmethyloxy-9-cyclohexylmethyl-β-carbolin-2-ium bromide] | 0.3 | I (class I: actually cytostatic for 3 days (<10% of cell death at the 3rd day)) |
| 27 ± 1 | 14 ± 5 | 0.4 ± 0.06 | 7.9 ± 0.2 | 16 ± 2 | 17.5 ± 0.9 |  |  |  |  |  |  |  |  | Cc1nccc2c3ccc(OCc4cccc(F)c4)cc3n(Cc3cccc(F)c3)c12 [CV5, 1-methyl-7-(3-fluorobenzyloxy)-9-(3-fluorobenzyl)-β-carboline] | 0.9 | I (class I: actually cytostatic for 3 days (<10% of cell death at the 3rd day)) |
|  |  |  |  |  |  | 42 ± 3 | 37 ± 5 | 27 ± 2 | 30 ± 4 | 31 ± 4 | 53 ± 3 |  |  | Cc1nccc2c1[nH]c1cc(OC(=O)c3ccccc3)ccc12 [JR140] | 0.2 | III |
| 34 ± 1 | 21 ± 4 | 26 ± 1 | 23 ± 2 | 9 ± 1 | 13 ± 1 |  |  |  |  |  |  |  |  | CCCn1c2cc(OCc3ccccc3)ccc2c2ccnc(C)c21 [CV33, 1-methyl-7-benzyloxy-9-propyl-β-carboline] | 0.3 | III |
| 17 ± 3 | 14 ± 3 | 9.3 ± 0.2 | 21 ± 1 | 4.1 ± 0.6 | 17 ± 2 |  |  |  |  |  |  |  |  | Cc1nccc2c1[nH]c1cc(OCc3ccccc3)ccc12 [JR79, 1-methyl-7-benzyloxy-β-carboline] | 0.2 | III |

| Structure (SMILES) | IC50 (T98G glioma cells; Homo sapiens, T98G) [µM] | IC50 [1, 4] [µM] | IC50 (U373 glioma cells; Homo sapiens, U373 MG) [µM] | IC50 [2, 5] [µM] | IC50 [3, 6] [µM] | IC50 (Hs683 glioma cells; [7]) [µM] | IC50 (T98G glioma cells) [µM] | IC50 [1, 8] [µM] | IC50 (U373 glioma cells) [µM] | IC50 ([2]; 72 hours of incubation) [µM] | IC50 ([3]; 72 hours of incubation) [µM] | IC50 (Hs683 glioma cells; 72 hours of incubation) [µM] | IC50 [1, 9] [µM] | IC50 ([1]; Homo sapiens, Table 4, mean over cell lines, read-out: IC50 μM growth inhibition (MTT test)) [µM] | global growth ratio (GGR) (U373 cells) | Anti proliferative class (U373 cells) |
| --- | --- | --- | --- | --- | --- | --- | --- | --- | --- | --- | --- | --- | --- | --- | --- | --- |
| Cc1nccc2c1[nH]c1cc(OCC(C)C)ccc12 [JR221] |  |  |  |  |  |  | 22 ± 3 | 22 ± 3 | 24 ± 1 | 12 ± 3 | 25 ± 1 | 23 ± 1 |  |  | 0.1 | IV (class IV: cytotoxic (>50% of cell death on the first day)) |
